Results on 21 compounds are retold here after patent US20050004126A1 (priority 2001, published 2005).

The target of data set [1] is T1, MMP-13CD (catalytic domain of collagenase 3) (Homo sapiens, UniProt P45452). In words: biochemical.
Data set [2] deals with T1, MMP-13CD (catalytic domain of collagenase 3). In words: Thiopeptolide hydrolysis assay, MMP-13.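 Note: inhibition of enzymatic thiopeptolide substrate cleavage (100 µM) in pH 6.0 MES buffer with CaCl2 and DTNB, comparing hydrolysis with versus without inhibitor.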
Data set [3] has as its target T2, MMP-7FL (full-length matrilysin) (Homo sapiens, UniProt P09237).
T2 sequence (P09237 95-267): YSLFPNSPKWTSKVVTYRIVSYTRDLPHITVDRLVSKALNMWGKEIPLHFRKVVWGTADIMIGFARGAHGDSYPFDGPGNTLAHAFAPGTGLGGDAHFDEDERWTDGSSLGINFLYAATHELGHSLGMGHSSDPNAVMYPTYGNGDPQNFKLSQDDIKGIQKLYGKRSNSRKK
In words: Thiopeptolide hydrolysis assay, MMP-7. Format: biochemical.

Data set [4] concerns the target MMP-14CD (catalytic domain of membrane type 1 MMP) (Homo sapiens, UniProt P50281). The data set is described as follows: Thiopeptolide hydrolysis assay, MMP-14. Format: biochemical.
Data set [5] has as its target MMP-3CD (catalytic domain of stromelysin) (Homo sapiens, UniProt P08254). The data set is described as follows: Thiopeptolide hydrolysis assay, MMP-3.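 Note: inhibition of thiopeptolide substrate (100 µM) cleavage by the MMP-3 catalytic domain, detected with DTNB at pH 6.0 with CaCl2, hydrolysis compared against runs lacking inhibitor.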 The data set is classed as biochemical.
Experimental: (§1) They measure the amount by which a test compound reduces the hydrolysis of a thiopeptolide substrate caused by a matrix metalloproteinase enzyme.
Thiopeptolide substrates show virtually no decomposition or hydrolysis in the absence of a matrix metalloproteinase enzyme. A typical thiopeptolide substrate commonly utilized for assays is Ac-Pro-Leu-Gly-thioester-Leu-Leu-Gly-OEt. A 100 μL assay mixture will contain 50 mM of 2-morpholinoethane sulfonic acid monohydrate (MES, pH 6.0) 10 mM CaCl2, 100 μM thiopeptolide substrate, and 1 mM 5,5′-dithio-bis-(2-nitro-benzoic acid) (DTNB). […] Assays are carried out with and without matrix metalloproteinase inhibitor compounds, and the amount of hydrolysis is compared for a determination of inhibitory activity of the test compounds.
For data set [6], the target named is MMP-9FL (full length Gelatinase B) (Homo sapiens, UniProt P14780). The data set is described as follows: Thiopeptolide hydrolysis assay, MMP-9. The data set is classed as biochemical.
In data set [7] the target is T3, MMP-2FL (full length Gelatinase A) (Homo sapiens, UniProt P08253).
T3 sequence (P08253 110-660): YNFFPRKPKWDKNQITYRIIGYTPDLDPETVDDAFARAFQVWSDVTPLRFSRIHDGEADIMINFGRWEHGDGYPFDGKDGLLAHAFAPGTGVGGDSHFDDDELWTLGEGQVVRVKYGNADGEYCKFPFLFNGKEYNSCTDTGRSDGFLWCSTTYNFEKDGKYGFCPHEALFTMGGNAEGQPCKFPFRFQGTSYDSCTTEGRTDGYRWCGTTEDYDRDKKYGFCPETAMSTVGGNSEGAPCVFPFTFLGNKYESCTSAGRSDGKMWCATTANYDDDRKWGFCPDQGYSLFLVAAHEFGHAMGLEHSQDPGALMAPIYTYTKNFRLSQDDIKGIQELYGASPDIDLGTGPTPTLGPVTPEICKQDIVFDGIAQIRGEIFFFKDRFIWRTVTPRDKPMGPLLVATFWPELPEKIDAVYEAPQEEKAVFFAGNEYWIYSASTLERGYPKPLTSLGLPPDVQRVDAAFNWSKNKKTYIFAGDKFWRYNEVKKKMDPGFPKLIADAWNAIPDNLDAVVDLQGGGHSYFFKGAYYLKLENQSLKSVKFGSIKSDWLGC
The data set is described as follows: Thiopeptolide hydrolysis assay, MMP-2. Format: biochemical.

The target in data set [8] is T4, MMP-1FL (full-length interstitial collagenase) (Homo sapiens, UniProt P03956).
T4 sequence (P03956 100-469): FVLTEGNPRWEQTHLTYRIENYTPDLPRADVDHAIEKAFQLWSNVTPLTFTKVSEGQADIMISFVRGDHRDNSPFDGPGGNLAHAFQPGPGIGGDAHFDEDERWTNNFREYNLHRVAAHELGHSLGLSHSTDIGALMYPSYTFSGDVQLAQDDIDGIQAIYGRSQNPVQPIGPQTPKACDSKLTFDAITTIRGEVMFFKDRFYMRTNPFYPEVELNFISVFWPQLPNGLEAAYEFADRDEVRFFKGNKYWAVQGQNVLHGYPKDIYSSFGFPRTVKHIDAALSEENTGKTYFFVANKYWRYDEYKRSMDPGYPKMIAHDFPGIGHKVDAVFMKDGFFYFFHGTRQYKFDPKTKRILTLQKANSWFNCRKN
The data set is described as follows: Thiopeptolide hydrolysis assay, MMP-1. Format: biochemical.
Experimental: as §1
Thiopeptolide substrates show virtually no decomposition or hydrolysis in the absence of a matrix metalloproteinase enzyme. A typical thiopeptolide substrate commonly utilized for assays is Ac-Pro-Leu-Gly-thioester-Leu-Leu-Gly-OEt. A 100 μL assay mixture will contain 50 mM of 2-morpholinoethane sulfonic acid monohydrate (MES, pH 6.0) 10 mM CaCl2, 100 μM thiopeptolide substrate, and 1 mM 5,5′-dithio-bis-(2-nitro-benzoic acid) (DTNB). […] The change in absorbance at 405 nm is monitored on a Thermo Max microplate reader (moleucular Devices, Menlo Park, Calif.) at room temperature (22° C.). […] Assays are carried out with and without matrix metalloproteinase inhibitor compounds, and the amount of hydrolysis is compared for a determination of inhibitory activity of the test compounds.

Setting [9] is: Table 1a, full-length enzyme, read-out: MMP07 (FL) IC50.
Where [10] appears, read: Table 1a, catalytic domain, read-out: MMP14 (CD) IC50.
Where [11] appears, read: Table 1a, full-length enzyme, read-out: MMP09 (FL) IC50.
[12] abbreviates: Table 1a, full-length enzyme, read-out: MMP02 (FL) IC50.
Where [13] appears, read: Table 1a, full-length enzyme, read-out: MMLP01 (FL) IC50.
Where [14] appears, read: Table 1a, catalytic domain, read-out: MMP03 (CD) IC50.
Where [15] appears, read: MMP13 (CD) IC50 μM, Table 1a, catalytic domain.
[16] abbreviates: Table VI, synthesis examples, read-out: MMP01.
Setting [17] is: Table VI, synthesis examples, read-out: MMP014.
Setting [18] is: Table VI, synthesis examples, read-out: MMP09.
Setting [19] is: Table VI, synthesis examples, read-out: MMP02.
[20] abbreviates: Table VI, synthesis examples, read-out: MMP07.

Where two headings read alike, the source gives them in different places.

Chain of MMP-9FL (full length Gelatinase B) (P14780 94-707): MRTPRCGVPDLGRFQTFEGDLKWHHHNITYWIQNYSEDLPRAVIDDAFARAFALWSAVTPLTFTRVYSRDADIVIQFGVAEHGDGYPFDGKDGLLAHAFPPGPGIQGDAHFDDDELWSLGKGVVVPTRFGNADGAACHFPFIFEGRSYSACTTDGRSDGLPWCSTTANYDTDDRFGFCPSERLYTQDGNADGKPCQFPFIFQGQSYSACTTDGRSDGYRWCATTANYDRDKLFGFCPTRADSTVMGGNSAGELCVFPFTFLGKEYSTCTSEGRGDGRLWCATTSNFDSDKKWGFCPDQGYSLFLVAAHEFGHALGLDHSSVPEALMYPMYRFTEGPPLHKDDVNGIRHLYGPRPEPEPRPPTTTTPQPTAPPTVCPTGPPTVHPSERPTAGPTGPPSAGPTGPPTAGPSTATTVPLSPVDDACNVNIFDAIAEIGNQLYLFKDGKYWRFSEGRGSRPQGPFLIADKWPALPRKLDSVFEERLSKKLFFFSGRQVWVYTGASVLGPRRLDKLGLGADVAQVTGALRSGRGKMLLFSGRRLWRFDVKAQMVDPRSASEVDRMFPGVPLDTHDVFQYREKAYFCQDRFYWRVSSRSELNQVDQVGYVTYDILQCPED
Chain of MMP-3CD (catalytic domain of stromelysin) (P08254 100-272 limits assumed): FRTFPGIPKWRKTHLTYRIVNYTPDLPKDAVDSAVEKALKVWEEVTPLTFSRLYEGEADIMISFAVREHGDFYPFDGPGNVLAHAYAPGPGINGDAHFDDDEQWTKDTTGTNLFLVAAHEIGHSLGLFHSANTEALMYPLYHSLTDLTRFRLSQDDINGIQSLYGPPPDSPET

`O=C(NCc1ccc2c(c1)OCO2)c1ccc2[nH]c(=S)n(Cc3ccccc3)c(=O)c2c1` [3-Benzyl-4-oxo-2-thioxo-1,2,3,4-tetrahydroquinazoline-6-carboxylic acid (benzo[1,3]dioxol-5-ylmethyl)amide]: the IC50 turned out to be 0.014 µM in [1] and 0.014 µM in data set [2] (MMP13 IC50 μM, Table IVb).
With `O=C(OCc1ccccc1)c1cn2c(=O)n(Cc3ccccc3)c(=O)cc2s1` [Example 1], the IC50 in data set [3] (setting [9]), in data set [4] (setting [10]), in [5] (read-out: MMP03 (CD) IC50), in [6] (setting [11]) and in data set [7] (setting [12]) was greater than 100 µM each time.
`O=C(NCc1ccccc1)c1cn2c(=O)n(Cc3ccccc3)c(=O)cc2s1` [Example 2]: the IC50 was greater than 100 µM in data set [3] (setting [9]); greater than 100 µM in [8] (setting [13]); greater than 100 µM in data set [4] (setting [10]); greater than 100 µM in data set [5] (setting [14]); greater than 100 µM in [6] (setting [11]); 81 µM in data set [7] (setting [12]). In addition, in data set [2] (setting [15]), the IC50 was determined as 0.51 µM.
As to `Cc1c(=O)n(Cc2ccccc2)c(=O)n2cc(C(=O)OCc3ccccc3)sc12` [Example 3], the IC50 was greater than 100 µM in data set [3] (setting [9]); greater than 100 µM in data set [4]; greater than 30 µM in data set [5] (setting [14]); greater than 100 µM in data set [6] (setting [11]); greater than 100 µM in data set [7] (setting [12]); 0.0056 µM in data set [2] (setting [15]).
Regarding `O=C(OCc1ccncc1)c1cn2c(=O)n(Cc3ccccc3)c(=O)cc2s1` [Example 4], the IC50 is no less than 100 µM in [3] (setting [9]); no less than 100 µM in data set [4] (setting [10]); no less than 30 µM in data set [5] (setting [14]); no less than 100 µM in [6] (setting [11]); 0.0054 µM in data set [2] (setting [15]).
Consider `COc1ccc(CNC(=O)c2cn3c(=O)n(Cc4ccc(C(=O)O)cc4)c(=O)c(C)c3s2)cc1` [Example 5], for which the IC50 in [3] (setting [9]) was greater than 100 µM; in data set [8] (setting [13]) it was greater than 100 µM; in data set [4] (setting [10]), greater than 100 µM; in data set [5] (setting [14]), 29 µM; in data set [6] (setting [11]), greater than 100 µM; in data set [7] (setting [12]), greater than 100 µM. In addition, the IC50 in [2] (setting [15]) was found to be 0.0015 µM.
As for `Cc1c(=O)n(Cc2ccc(C(=O)O)cc2)c(=O)n2cc(C(=O)NCc3ccncc3)sc12` [Example 6], the IC50 in [3] (setting [9]) is greater than 100 µM; in [4] (setting [10]), greater than 100 µM; in data set [5] (setting [14]) it was greater than 100 µM; in [6] (setting [11]), greater than 100 µM; in data set [7] (setting [12]), greater than 100 µM; in data set [2] (setting [15]), 0.0057 µM.
On to `Cc1c(=O)n(Cc2ccc(S(C)(=O)=O)cc2)c(=O)n2cc(C(=O)NCc3ccncc3)sc12` [Example 7], for which the IC50 in data set [3] (setting [9]) was greater than 100 µM; in data set [4] (setting [10]), greater than 100 µM; in data set [5] (setting [14]), greater than 100 µM; in data set [6] (setting [11]), greater than 100 µM; in data set [7] (setting [12]), greater than 100 µM; in [2] (setting [15]), 0.0235 µM.
`COc1ccc(CNC(=O)c2cn3c(=O)n(Cc4ccc(Cl)c(Cl)c4)c(=O)cc3s2)cc1` [Example 8]: the IC50 in data set [3] (setting [9]), in data set [8] (setting [13]), in [4] (setting [10]), in [5] (setting [14]), in data set [6] (setting [11]) and in data set [7] (setting [12]) was greater than 100 µM throughout. The IC50 in data set [2] (setting [15]) came out at 0.084 µM.
Turning to `COc1ccc(CNC(=O)c2cn3c(=O)n(Cc4ccc(C(=O)O)cc4)c(=O)c(C)c3s2)cc1` [Synthesis Example 5, 4-[2-(4-Methoxy-benzylcarbamoyl)-8-methyl-5,7-dioxo-7H-thiazolo[3,2-c]pyrimidin-6-ylmethyl]-benzoic acid], the melting point (as a rule, the temperature of the solid-liquid transition) is greater than 210 °C.
The compound `O=C(OCc1ccncc1)c1cc2c(=O)n(Cc3ccccc3)c(=O)[nH]c2s1` [Synthesis Example 18, 3-Benzyl-2,4-dioxo-1,2,3,4-tetrahydro-thieno[2,3-d]pyrimidine-6-carboxylic acid pyridin-4-ylmethyl ester] registered a melting point of 248 to 250 °C.
In the case of `O=C(OCc1ccncc1)c1ccc2[nH]c(=O)n(Cc3cccs3)c(=O)c2c1` [Synthesis Example 47, 4-Pyridylmethyl 2,4-dioxo-3-thien-2-ylmethyl-1,2,3,4-tetrahydroquinazoline-6-carboxylate], in [1], the IC50 was found to be 0.016 µM.
Still for that read-out and setting: the value for `Cn1c(=O)n(Cc2ccccc2)c(=O)c2cc(C(=O)NCc3ccc4c(c3)OCO4)cnc21` [Synthesis Example 49, 3-Benzyl-1-methyl-2,4-dioxo-1,2,3,4-tetrahydro-pyrido[2,3-d]pyrimidine-6-carboxylic acid (1,3-benzodioxol-5-ylmethyl)-amide] was 0.007 µM; that for `COc1ccc(CNC(=O)c2cnc3c(c2)c(=O)n(Cc2ccc(C(=O)O)cc2)c(=O)n3C)cc1` [Synthesis Example 50, 4-[6-(4-Methoxy-benzylcarbamoyl)-1-methyl-2,4-dioxo-1,4-dihydro-2H-pyrido[2,3-d]pyrimidin-3-ylmethyl]-benzoic acid] was 0.0016 µM; that for `COc1ccc(CNC(=O)c2cnc3c(c2)c(=O)n(Cc2ccc(C#N)cc2)c(=O)n3C)cc1` [Synthesis Example 51, 3-(4-Cyano-benzyl)-1-methyl-2,4-dioxo-1,2,3,4-tetrahydro-pyrido[2,3-d]pyrimidine-6-carboxylic acid 4-methoxy-benzylamide] was 0.016 µM.
Still for that read-out and setting: next, `COc1ccc(CNC(=O)c2cnc3c(c2)c(=O)n(Cc2ccc(F)cc2)c(=O)n3C)cc1` [Synthesis Example 52, 3-(4-Fluoro-benzyl)-1-methyl-2,4-dioxo-1,2,3,4-tetrahydro-pyrido[2,3-d]pyrimidine-6-carboxylic acid 4-methoxy-benzylamide]: 0.032 µM; `Cn1c(=O)n(Cc2ccccc2)c(=O)c2cc(C(=O)NCc3ccc4c(c3)OCO4)ncc21` [Synthesis Example 53, 3-Benzyl-1-methyl-2,4-dioxo-1,2,3,4-tetrahydro-pyrido[3,4-d]pyrimidine-6-carboxylic acid (1,3-benzodioxol-5-ylmethyl)-amide]: 0.001 µM; `COC(=O)c1ccc(Cn2c(=O)c3cc(C(=O)NCc4ccc(OC)cc4)ncc3n(C)c2=O)cc1` [Synthesis Example 54, Methyl 4-[6-(4-Methoxy-benzylcarbamoyl)-1-methyl-2,4-dioxo-1,4-dihydro-2H-pyrido[3,4-d]pyrimidin-3-ylmethyl]-benzoate]: 0.0017 µM.
In the case of `CN1C(=O)N(Cc2ccccc2)S(=O)(=O)c2cc(C(=O)OCc3ccccc3)ccc21` [compound 62], the IC50 in [8] (setting [16]), in [4] (setting [17]), in data set [6] (setting [18]) and in [7] (setting [19]) was greater than 100 µM throughout.
For `CN1C(=O)N(Cc2ccccc2)S(=O)(=O)c2cc(C(=O)NCc3ccccc3)ccc21` [compound 63], the IC50 in data set [3] (setting [20]) was greater than 30 µM; in [8] (setting [16]), greater than 100 µM; in data set [4] (setting [17]), greater than 30 µM; in [5] (Table VI, synthesis examples, read-out: MMP03), greater than 30 µM; in data set [6] (setting [18]), greater than 30 µM; in data set [7] (setting [19]), greater than 30 µM.
With `COc1ccc(CNC(=O)c2ccc3c(c2)S(=O)(=O)N(Cc2ccc([N+](=O)[O-])cc2)C(=O)N3C)cc1` [compound 65], the IC50 in data set [3] (setting [20]), in data set [8] (setting [16]), in data set [4] (setting [17]) and in data set [6] (setting [18]) was greater than 30 µM throughout.
